This note sets out measurements from article PMC4742970 (Nature Communications, 2016).

Series [1] has as its target T1, Msh2–Msh3 (Msh2HA–Msh3) (Saccharomyces cerevisiae, UniProt P25336+P25847).
T1 construct: heterodimer overexpressed in and purified from yeast; labelled with anti-HA quantum dots in single-molecule tests
T1 sequence (P25847 1-964): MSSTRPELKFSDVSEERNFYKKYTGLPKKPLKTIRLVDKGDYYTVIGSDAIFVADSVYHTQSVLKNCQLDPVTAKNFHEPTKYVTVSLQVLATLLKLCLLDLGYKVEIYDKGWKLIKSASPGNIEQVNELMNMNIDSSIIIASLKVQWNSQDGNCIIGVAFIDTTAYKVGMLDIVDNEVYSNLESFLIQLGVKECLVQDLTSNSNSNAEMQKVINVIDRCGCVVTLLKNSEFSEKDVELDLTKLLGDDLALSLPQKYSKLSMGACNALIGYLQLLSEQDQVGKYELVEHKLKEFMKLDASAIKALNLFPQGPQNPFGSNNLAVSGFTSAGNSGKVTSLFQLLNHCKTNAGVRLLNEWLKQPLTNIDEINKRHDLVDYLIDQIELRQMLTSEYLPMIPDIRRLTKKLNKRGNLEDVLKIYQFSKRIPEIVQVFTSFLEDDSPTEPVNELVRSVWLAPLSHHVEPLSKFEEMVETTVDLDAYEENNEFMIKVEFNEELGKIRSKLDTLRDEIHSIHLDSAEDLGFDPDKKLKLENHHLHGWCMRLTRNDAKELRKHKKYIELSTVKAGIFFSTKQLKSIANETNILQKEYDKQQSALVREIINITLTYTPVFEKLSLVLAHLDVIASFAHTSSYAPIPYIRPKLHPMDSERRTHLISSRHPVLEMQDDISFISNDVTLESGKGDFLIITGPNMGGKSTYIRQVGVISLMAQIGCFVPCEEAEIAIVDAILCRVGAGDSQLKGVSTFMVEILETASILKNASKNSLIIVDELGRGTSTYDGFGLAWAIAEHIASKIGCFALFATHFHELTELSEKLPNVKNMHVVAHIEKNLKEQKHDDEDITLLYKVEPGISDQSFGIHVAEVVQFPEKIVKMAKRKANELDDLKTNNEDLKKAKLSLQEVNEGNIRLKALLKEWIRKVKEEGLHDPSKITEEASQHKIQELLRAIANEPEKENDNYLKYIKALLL
T1 sequence (P25336 1-1018): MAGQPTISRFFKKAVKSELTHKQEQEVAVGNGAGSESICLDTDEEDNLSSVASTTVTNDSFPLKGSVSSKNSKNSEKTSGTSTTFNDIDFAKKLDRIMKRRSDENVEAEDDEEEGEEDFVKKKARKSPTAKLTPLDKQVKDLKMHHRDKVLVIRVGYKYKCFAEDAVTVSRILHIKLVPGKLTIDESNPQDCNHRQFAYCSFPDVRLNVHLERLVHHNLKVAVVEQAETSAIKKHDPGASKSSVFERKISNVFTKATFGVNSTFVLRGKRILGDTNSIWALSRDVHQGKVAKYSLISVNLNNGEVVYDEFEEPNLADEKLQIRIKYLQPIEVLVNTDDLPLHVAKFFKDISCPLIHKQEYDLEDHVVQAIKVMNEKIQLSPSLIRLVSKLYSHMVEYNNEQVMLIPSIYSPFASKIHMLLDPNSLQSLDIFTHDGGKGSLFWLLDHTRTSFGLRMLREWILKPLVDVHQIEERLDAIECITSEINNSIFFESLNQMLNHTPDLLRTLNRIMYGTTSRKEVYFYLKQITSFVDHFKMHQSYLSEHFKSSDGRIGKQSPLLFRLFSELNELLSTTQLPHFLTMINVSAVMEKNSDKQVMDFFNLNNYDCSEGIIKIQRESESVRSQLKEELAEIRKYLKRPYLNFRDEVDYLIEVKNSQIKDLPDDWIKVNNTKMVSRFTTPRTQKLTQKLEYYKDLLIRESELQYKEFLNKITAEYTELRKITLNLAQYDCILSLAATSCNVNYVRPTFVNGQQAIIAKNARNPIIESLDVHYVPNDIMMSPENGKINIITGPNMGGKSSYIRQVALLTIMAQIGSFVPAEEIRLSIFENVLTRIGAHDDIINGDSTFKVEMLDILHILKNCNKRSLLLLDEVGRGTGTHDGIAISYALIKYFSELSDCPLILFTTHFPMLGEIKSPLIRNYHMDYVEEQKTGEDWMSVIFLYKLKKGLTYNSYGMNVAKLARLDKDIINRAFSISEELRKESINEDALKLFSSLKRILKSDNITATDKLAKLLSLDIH
In words: single-molecule diffusion on DNA curtains (TIRF). Type of series: binding. The following applies: 1 mM ADP, 50 mM NaCl, 40 mM Tris-HCl pH 8; functional effect on diffusion along homoduplex DNA.

In series [2] the target is T1, Msh2–Msh3 (Msh2HA–Msh3). In words: ATPase assay, gamma-32P-ATP, PEI-cellulose TLC. Type of series: biochemical. To be noted: 20-250 μM ATP, 2 mM MgCl2, pH 7.5, 30 °C, 100 nM protein, with or without 2 μM DNA.
A further series deals with Msh2(HA)-Msh3 (Saccharomyces cerevisiae, UniProt P25847;P25336 1-964;1-1018). As to the kind of experiment: EMSA; no antibody or QD; EMSA: 20 mM HEPES pH 7.5, 100 mM NaCl, 1 mM DTT, 40 ug/ml BSA, 2 mM MgCl2, RT; curtains: 40 mM Tris-HCl pH 8, 25-150 mM NaCl, 2 mM MgCl2, 1-2 mM DTT, 0.2 mg/ml. A general note: Mobility shift assays separate free from complexed probe on a gel.

Take `Nc1ncnc2c1ncn2[C@@H]1O[C@H](COP(=O)(O)OP(=O)(O)O)[C@@H](O)[C@H]1O` [ADP]: the “single-molecule diffusion on DNA curtains (TIRF)” value at Msh2–Msh3 (Msh2HA–Msh3) [1] is “Here we show that ADP and ATP also alter the interactions of the yeast Msh2–Msh3”. For `Nc1ncnc2c1ncn2[C@@H]1O[C@H](COP(=O)(O)OP(=O)(O)OP(=O)(O)O)[C@@H](O)[C@H]1O` [ATP], the “ATPase assay, gamma-32P-ATP, PEI-cellulose TLC” value at Msh2–Msh3 (Msh2HA–Msh3) [2] was “Gel shift and ATPase assays indicated that the QD-tagged Msh2–Msh3 retained biochemical activities”.

B1: 3'-ssDNA flap LS1/LS3/LS16 (mixed)
DNA 1: CACGCTACCGAATTCTGACTTGCTAGGACATCTTTGCCCACGTTGACCC
DNA 2: TCGATAGTCTCTAGATAGCATGTCCTAGCAAGTCAGAATTCGGTAGCGTG
DNA 3: GCTATCTAGAGACTATCGA
For the molecule B1, the binding result with Msh2(HA)-Msh3 is given as “binds”.
